According to patent US20240343720A1, “AAK1 INHIBITOR AND USE THEREOF” (Xizang Haisco Pharmaceutical Co., Ltd., priority 2021, published 2024):

Target: AAK1 (Homo sapiens (Human), UniProt Q2M2I8)
Experiment: In vitro AAK1 enzyme activity assay (ADP-Glo)
Type: biochemical
Conditions: read-out: Inhibitory activity against AAK1 IC50
Procedure: Compound stock solution (concentration: 10 mM, dissolved in DMSO) was diluted with DMSO to 0.2 mM and then diluted with DMSO in 5-fold gradient to obtain compound solutions with 10 concentrations. Subsequently, the compound solutions with different concentrations were diluted 50-fold in 1×kinase reaction buffer (containing 40 mM Tris, 20 mM MgCl2, 0.1% BSA and 0.5 mM DTT) for later use. AAK1 (Signalchem, Cat #A01-11G-10) was diluted with 1×kinase reaction buffer to 2-fold the final concentration (final concentrations: 30 nM and 28 nM). AAK1 was added to a 384-well white plate at 2 μL/well, and the compounds were then added at 1 μL/well. The plate was sealed with a plate-sealing film, centrifuged at 1000 rpm for 30 seconds and then placed at room temperature for 10 minutes. A mixed solution of ATP (Promega, Cat #V914B) and substrate Micro2 (GenScript, Cat #PE0890) was formulated at 4-fold the final concentration (for AAK1, the corresponding final concentrations of ATP: 15 μM and 5 μM, and the corresponding final concentration of Micro2: 0.1 mg/mL). To the reaction plate was added the mixed solution of ATP and the substrate at 1 μL/well. The plate was sealed with a plate-sealing film and centrifuged at 1000 rpm for 30 seconds. The reaction was carried out at room temperature for 60 minutes (AAK1). ADP-Glo (Promega, Cat #V9102) was transferred to the 384-well plate at 4 μL/well and centrifugation was carried out at 1000 rpm for 1 minute. The mixture was incubated at 25° C. for 40 minutes. A detection solution was transferred to the 384-well plate at 8 μL/well and centrifugation was carried out at 1000 rpm for 1 minute. The resulting mixture was incubated at 25° C. for 40 minutes. The RLU (Relative luminescence unit) signal values were read using a Biotek multilable microplate reader and the percent inhibition was calculated according to the following formula: [1−(LUMcompound−LUMpositive control)/(LUMnegative control−LUMpositive control)]×100. IC50 values were calculated using Graphpad 7.0 software using a four-parameter non-linear fit equation.

AAK1, sequence (Q2M2I8 27-365): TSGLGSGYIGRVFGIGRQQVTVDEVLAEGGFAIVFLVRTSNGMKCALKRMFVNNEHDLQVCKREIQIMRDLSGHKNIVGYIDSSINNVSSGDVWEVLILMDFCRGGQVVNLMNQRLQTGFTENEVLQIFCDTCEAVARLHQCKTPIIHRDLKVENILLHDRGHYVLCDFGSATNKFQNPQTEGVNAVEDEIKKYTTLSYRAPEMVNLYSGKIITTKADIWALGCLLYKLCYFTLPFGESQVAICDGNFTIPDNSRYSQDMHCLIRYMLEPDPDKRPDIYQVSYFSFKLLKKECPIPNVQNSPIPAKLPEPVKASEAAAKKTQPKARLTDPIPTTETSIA

| IC50 [nM] | SMILES |
| --- | --- |
| 14.7 | CC(C)(F)CC(C)(N)COc1ccc(-c2ccnc(C(F)F)c2)nc1C(F)F (stereo not drawn) [Compound 1, 1-((2′,6-bis(difluoromethyl)-[2,4′-bipyridin]-5-yl)oxy)-4-fluoro-2,4-dimethylpentan-2-amine] |
| 9.29 | CC(N)(COc1ccc(-c2ccnc(C(F)F)c2)nc1C(F)F)CC1(C)CC1 (stereo not drawn) [Compound 2, 1-((2′,6-bis(difluoromethyl)-[2,4′-bipyridin]-5-yl)oxy)-2-methyl-3-(1-methylcyclopropyl) propan-2-amine] |
| 6.37 | C=C(C)C[C@](C)(N)COc1ccc(-c2ccnc(NC(C)=O)c2)cc1C#N [Compound 5, (S)-N-(4-(4-((2-amino-2,4-dimethylpent-4-en-1-yl)oxy)-3-cyanophenyl)pyridin-2-yl)acetamide] |
| 11 | CC(=O)Nc1cc(-c2ccc(OC[C@@](C)(N)CC(C)(C)F)c(C#N)c2)ccn1 [Compound 6, (S)-N-(4-(4-((2-amino-4-fluoro-2,4-dimethylpentyl)oxy)-3-cyanophenyl)pyridin-2-yl)acetamide] |
| 13.8 | C=C(C)C[C@](C)(N)COc1cnc(-c2ccnc(NC(=O)OC)c2)cc1C(F)(F)F [Compound 7, Methyl-(S)-(5-((2-amino-2,4-dimethylpent-4-en-1-yl)oxy)-4-(trifluoromethyl) [2,4′-bipyridin]-2′-yl)carbamate] |
| 11.5 | C=C(C)C[C@](C)(N)COc1ccc(-c2ccnc(NC(=O)OC)c2)nc1C [Compound 10, Methyl (S)-(5-((2-amino-2,4-dimethylpent-4-en-1-yl)oxy)-6-methyl-[2,4′-bipyridin]-2′-yl)carbamate] |
| 19.8 | C=C(C)C[C@](C)(N)COc1ccc(-c2ccnc(NC(C)=O)c2)nc1C(F)F [Compound 15, (S)-N-(5-((2-amino-2,4-dimethylpent-4-en-1-yl)oxy)-6-(difluoromethyl)-[2,4′-bipyridin]-2′-yl)acetamide] |
| 22.3 | CC(=O)Nc1cc(-c2ccc(OC[C@@](C)(N)CC(C)(C)F)c(C(F)F)n2)ccn1 [Compound 16, (S)-N-(5-((2-amino-4-fluoro-2,4-dimethylpentyl)oxy)-6-(difluoromethyl)-[2,4′-bipyridin]-2′-yl)acetamide] |
| 26.8 | C=C(C)C[C@](C)(N)COc1ncc(-c2ccnc(NC(=O)OC)c2)cc1C(F)F [Compound 17, (S)-methyl-(6-((2-amino-2,4-dimethylpent-4-en-1-yl)oxy)-5-(difluoromethyl)-[3,4′-bipyridin]-2′-yl)carbamate] |
| 9.55 | COC(=O)Nc1cc(-c2cnc(OC[C@@](C)(N)CC(C)(C)F)c(C(F)F)c2)ccn1 [Compound 18, (S)-methyl-(6-((2-amino-4-fluoro-2,4-dimethylpentyl)oxy)-5-(difluoromethyl)-[3,4′-bipyridin]-2′-yl)carbamate] |
| 16.1 | COC(=O)Nc1cc(-c2cc(C(F)F)c(OC[C@@](C)(N)CC(C)(C)F)cn2)ccn1 [Compound 20, Methyl (S)-(5-((2-amino-4-fluoro-2,4-dimethylpentyl)oxy)-4-(difluoromethyl)-[2,4′-bipyridin]-2′-yl)carbamate] |
| 32.1 | NC1(COc2ccc(-c3ccnc(C(F)F)c3)nc2C(F)F)CCCC1 [Compound 22, 1-(((2′,6-bis(difluoromethyl)-[2,4′-bipyridin]-5-yl)oxy)methyl)cyclopentan-1-amine] |
| 38.6 | C=C(C)C[C@](C)(N)COc1ccc(-c2ccnc(NC(C)=O)c2)cc1C(N)=O [Compound 23, (S)-5-(2-acetamidopyridin-4-yl)-2-((2-amino-2,4-dimethylpent-4-en-1-yl)oxy)benzamide] |
| 22.5 | C=C(C)C[C@](C)(N)COc1ccc(-c2ccnc(NC(=O)C3CC(F)(F)C3)c2)cc1C#N [Compound 24, (S)-N-(4-(4-((2-amino-2,4-dimethylpent-4-en-1-yl)oxy)-3-cyanophenyl)pyridin-2-yl)-3,3-difluorocyclobutane-1-carboxamide] |
| 11.9 | C=C(C)C[C@](C)(N)COc1ccc(-c2ccnc(NC(=O)[C@H]3C[C@H]3F)c2)cc1C#N [Compound 25, (1R,2R)-N-(4-(4-(((S)-2-amino-2,4-dimethylpent-4-en-1-yl)oxy)-3-cyanophenyl)pyridin-2-yl)-2-fluorocyclopropane-1-carboxamide] |
| 43.1 | COC(=O)Nc1cc(-c2cc(C(F)(F)F)c(OCC(C)(N)C=C(C)C)cn2)ccn1 (stereo not drawn) [Compound 27, Methyl (5-((2-amino-2,4-dimethylpent-3-en-1-yl)oxy)-4-(trifluoromethyl)-[2,4′-bipyridin]-2′-yl)carbamate] |
| 5.96 | CC(=O)Nc1cc(-c2ccc(OC[C@@](C)(N)CC(C)(O)CO)c(C#N)c2)ccn1 (stereo partly drawn) [Compound 28, N-(4-(4-(((2S)-2-amino-4,5-dihydroxy-2,4-dimethylpentyl)oxy)-3-cyanophenyl)pyridin-2-yl)acetamide] |
| 11 | C=C(C)C[C@](C)(N)COc1ccc(-c2ccnc(NC(=O)[C@H]3CC3(F)F)c2)cc1C#N [Compound 29, (1R)-N-(4-(4-{[(2S)-2-amino-2,4-dimethylpent-4-en-1-yl]oxy}-3-cyanophenyl)pyridin-2-yl)-2,2-difluorocyclopropane-1-carboxamide] |
| 9.08 | C=C(C)C[C@](C)(N)COc1ccc(-c2ccnc(NC(=O)[C@@H]3CC3(F)F)c2)cc1C#N [Compound 30, (1S)-N-(4-(4-{[(2S)-2-amino-2,4-dimethylpent-4-en-1-yl]oxy}-3-cyanophenyl)pyridin-2-yl)-2,2-difluorocyclopropane-1-carboxamide] |
| 10.9 | COC(=O)Nc1cc(-c2ccc(OC[C@@](C)(N)CC3CC3)c(C(F)F)n2)ccn1 [Compound 31, Methyl (S)-(5-(2-amino-3-cyclopropyl-2-methylpropoxy)-6-(difluoromethyl)-[2,4′-bipyridin]-2′-yl)carbamate] |

| SMILES | IC50 [nM] |
| --- | --- |
| C[C@@](N)(COc1ccc(-c2ccnc(C(F)F)c2)nc1C(F)F)CC1CC1 [Compound 26, (S)-1-((2′,6-bis(difluoromethyl)-[2,4′-bipyridin]-5-yl)oxy)-3-cyclopropyl-2-methylpropan-2-amine] | 11 |
